Measured values reported in patent US20230108050A1, “CXCL8 (INTERLEUKIN-8) ACTIVITY INHIBITOR AND CORTICOSTEROID COMBINATION AND PHARMACEUTICAL COMPOSITION AND USE THEREOF” (Dompe' farmaceutici SpA, priority 2020, published 2023).

Legend:
Assay type in all cases: in vivo, BALB/c mice
[1] = system: Th17 glucocorticoid-insensitive asthma mouse model; experiment: Neutrophil peroxidase activity (MPO) in lung tissue, Example 1c; settings: ladarixin 10 mg/Kg oral, dexamethasone 5 mg/Kg s.c.; after OVA exposure; FIG. 4A
Procedure: MPO assay was performed on the lung tissue in the different experimental mice groups. In details, MPO assay was performed in a 96-well microplate by adding, in each well, 25 μL of 3,3′-5,5′-tetramethylbenzidine (TMB Sigma) diluted in dimethyl sulfoxide (DMSO; Merck, Darmstadt, Germany) at a final concentration of 1.6 mM; 100 μL of H2O2 0.02% vol/vol in PBS (pH 5.4) containing HTAB and 25 μL of processed tissue supernatant. The reaction started, at 37° C., by adding the TMB solution and the supernatant to the microplate and, after 5 min, H2O2 was added followed by a new incubation at 37° C. for 5 min. The reaction was stopped by adding 100 μL of H2SO4 1M and quantified at 450 nm wavelengths in a spectrophotometer (VERSA max, Molecular Devices, CA).

[2] = system: Th17 glucocorticoid-insensitive asthma mouse model; experiment: Cytokines quantification in lung tissue (ELISA), Example 1b; settings: ladarixin 10 mg/Kg oral, dexamethasone 5 mg/Kg s.c., lung lysate ELISA
Procedure: (§1) The investigation was conducted by using a Th17 glucocorticoid-insensitive asthma mouse model previously described (Campa C C et al., Nat Commun (2018), v. 9, p. 5232 and Dejager Let al., Mucosal Immunol (2015), v. 8, p 1212-25).
(§2) In details, BALB/c mice received systemic immunization by subcutaneous injection of 20 μg of chicken egg ovalbumin (OVA grade V, >98% pure; Sigma, St Louis, Mo.) in saline, emulsified in 75 μL CFA (Sigma-Aldrich) at day 0.
(§3) From day 28 after first immunization to day 31, mice were treated with PBS (vehicle), ladarixin, dexamethasone or ladarixin/dexamethasone as described below, and 60 minutes later exposed to aerosolized ovalbumin (1% in saline) for 20 minutes per day. Ladarixin was administered orally by gavage (10 mg/Kg in saline 0.9%), as previously described (Bertini et al., Br J Pharmacol (2012), v. 165, p. 436-54), once a day. Dexamethasone was administered subcutaneously (5 mg/Kg in saline), once a day.
The levels of IL17A and TNF-α were also measured in the different experimental mice groups. […] Levels of IL-17A and TNF-α were measured by ELISA using commercial DuoSet kits from R&D Systems, according to the instructions of the manufacturer. Results, shown in FIG. 2, are expressed as pg of cytokines per ml of lung lysate (pg/ml).

[3] = system: Th17 glucocorticoid-insensitive asthma mouse model; experiment: Assessment of pulmonary mechanics, Example 1e; settings: ladarixin 10 mg/Kg oral, dexamethasone 5 mg/Kg s.c.; FIG. 5B
Procedure: as §1, §2, §3
(§4) Mice form different experimental groups were anesthetized with a subcutaneous injection of ketamine and xylazine (130 mg/Kg ketamine and 8.5 mg/Kg xylazine) to maintain spontaneous breathing under anesthesia. […] Under mechanical respiration the Dynamic Compliance (Cdyn) and Lung Resistance (RI) were determined by Resistance and Compliance RC test. […]

[4] = system: Th17 glucocorticoid-insensitive asthma mouse model; experiment: Leukocytes and protein leakage in airways (BALF), Example 1a; settings: day 28-31, OVA aerosol
Procedure: as §1, §2, §3
An assessment of total leukocytes content in airways was carried out by performing bronchoalveolar lavage fluid (BALF) as previously described (Russo et al Am J Respir Cell Mol Biol (2009), v. 40, p. 410-21; Campa C C et al., Nat Commun (2018), v. 9, p. 5232). Briefly, an incision was made in the trachea where a 1.7 mm outside diameter polyethylene catheter was inserted. Then, the airways were washed 2 times with 1 mL of phosphate buffer saline (PBS). The samples were centrifuged at 300×g for 10 minutes at 4° C., the pellet was collected, resuspended in 100 μL of 3% BSA in PBS and a sample from this solution was used to assess the total leukocytes in the airways. The remaining was centrifuged at 300×g for 10 minutes at 4° C. on a histology glass slide to assess differential counting of macrophages, lymphocytes, eosinophils and neutrophils using an optical microscopy. Total protein was quantified in the BALF supernatant using a Bio-Rad protein assay Dye Reagent (Bio-Rad, USA) to measure possible protein leakage as previously described (Campa C C et al., Nat Commun (2018), v. 9, p. 5232).

[5] = system: Th17 glucocorticoid-insensitive asthma mouse model; experiment: Histological analysis of lung, pulmonary inflammation score, Example 1d; settings: ladarixin 10 mg/Kg oral, dexamethasone 5 mg/Kg s.c.; six grade scale 0-5; FIG. 4D, FIG. 3
Procedure: In details, BALB/c mice received systemic immunization by subcutaneous injection of 20 μg of chicken egg ovalbumin (OVA grade V, >98% pure; Sigma, St Louis, Mo.) in saline, emulsified in 75 μL CFA (Sigma-Aldrich) at day 0. […]
Semiquantitative histopathology analyses were performed as described (Campa C C et al., Nat Commun (2018), v. 9, p. 5232). Briefly, ten random images per lung were acquired at 200× and pulmonary inflammation score was recorded according to a six grade scale where “0” corresponded to less than 1% of lung tissue area inflamed, “1” where up to 9% of lung area was affected by inflammation, “2” when 10% to 29% of lung tissue area was affected, “3” if 30% to 49% of lung tissue area was affected, “4” if 50% to 69% of lung tissue area was affected and “5” if more than 70% of the lung tissue area was affected by inflammation.
After BALF, left lung was removed and fixed in formalin 4% in PBS (pH 7.4), as previously described. […] Photomicrographs were obtained at 400× magnification and were analyzed using the software Image Pro Plus (Image-Pro Plus 4.1, Media Cybernetics, USA) under light microscopy. […]

[6] = system: Th17 glucocorticoid-insensitive asthma mouse model; experiment: Assessment of leukocyte content in the airways (BALF), Example 2a; settings: DF2755A 10 mg/kg oral twice a day, dexamethasone 5 mg/kg, BALF day 32
Procedure: The investigation was conducted on the same mouse model as described in Example 1. In details, BALB/c mice received systemic immunization by subcutaneous injection of 20 μg of chicken egg ovalbumin (OVA grade V, >98% pure; Sigma, St Louis, Mo.) in saline, emulsified in 75 μL CFA (Sigma-Aldrich) at day 0. From day 28 after first immunization to day 31, mice were treated with PBS (vehicle), D[…], dexamethasone or D[…]/dexamethasone as described below, and 60 minutes later exposed to aerosolized ovalbumin (1% in saline) for 20 minutes per day. D[…] was administered orally by gavage twice a day so that one of the administrations was always 60 min before the OVA challenge. D[…] was diluted in saline 0.9% only at the time of use at room temperature and used at the dose of 10 mg/kg via the oral route. […] To assess leukocyte infiltration in the airways, bronchoalveolar lavage fluid (BALF) was performed. On day 32 after immunization, an incision was made in the trachea where a 1.7 mm outside diameter polyethylene catheter was inserted. Then, the airways were washed 2 times with 1 mL of phosphate buffer saline (PBS). The samples were centrifuged at 300×g for 10 minutes at 4° C., and 100 μL of 3% BSA in PBS was added to the pellet. A sample of this solution was used to assess the total leukocytes in the airways. The remaining solution was centrifuged at 300×g for 10 minutes at 4° C. and put on a histology glass slide to perform the differential counting of macrophages, lymphocytes, eosinophils and neutrophils using an optical microscopy. The supernatant was used to quantify the amount of total protein and the levels of chemokines and cytokines. The total protein assay was determined using a Bio-Rad protein assay Dye Reagent (Bio-Rad, USA) to measure possible protein leakage.

[7] = system: Th17 glucocorticoid-insensitive asthma mouse model; experiment: Chemokine and cytokine analysis in lung (ELISA), Example 2b; settings: DF2755A 10 mg/kg oral twice a day, dexamethasone 5 mg/kg, lung supernatant ELISA
Procedure: as §2, with “The investigation was conducted on the same mouse model as described in Example 1. In” for “In”
(§5) From day 28 after first immunization to day 31, mice were treated with PBS (vehicle), DF2755A, dexamethasone or DF2755A/dexamethasone as described below, and 60 minutes later exposed to aerosolized ovalbumin (1% in saline) for 20 minutes per day. DF2755A was administered orally by gavage twice a day so that one of the administrations was always 60 min before the OVA challenge. DF2755A was diluted in saline 0.9% only at the time of use at room temperature and used at the dose of 10 mg/kg via the oral route. Dexamethasone was diluted in saline 0.9% only at the time of use at room temperature and given at the dose of 5 mg/kg.
After BALF, the right lung was removed and a sample of 100 mg was homogenized in 1 mL of PBS (0.4 M NaCl and 10 mM of NaPO4) containing anti-proteases (0.1 mM phenylmethylsulfonyl fluoride, 0.1 mM benzetonium chloride, 10 mM EDTA and 20 KI aprotinin A). The homogenate was centrifuged 8,000×g for 10 minutes at 4° C. The supernatant was frozen for further ELISA assay and the pellet was frozen/thawed three times using liquid nitrogen to assess neutrophil myeloperoxidase (MPO) and eosinophil peroxidase (EPO) activities.
The chemokines CXCL1/KC, CCL2/MCP-1 and CCL24/Eotaxin2, and cytokines TNF-α, IFN-γ and IL-17A levels in supernatant of lung tissue were measured by ELISA. Results were expressed as levels of cytokines (pg/mL or ng/mL) per 0.1 g of wet tissue/mL of extraction buffer.

[8] = system: Th17 glucocorticoid-insensitive asthma mouse model; experiment: Neutrophil myeloperoxidase and eosinophil peroxidase activity assays in lung, Example 2c; settings: DF2755A 10 mg/kg oral twice a day, dexamethasone 5 mg/kg
Procedure: From day 28 after first immunization to day 31, mice were treated with PBS (vehicle), DF2755A, dexamethasone or DF2755A/dexamethasone as described below, and 60 minutes later exposed to aerosolized ovalbumin (1% in saline) for 20 minutes per day. DF2755A was administered orally by gavage twice a day so that one of the administrations was always 60 min before the OVA challenge. DF2755A was diluted in saline 0.9% only at the time of use at room temperature and used at the dose of 10 mg/kg via the oral route. Dexamethasone was diluted in saline 0.9% only at the time of use at room temperature and given at the dose of 5 mg/kg. […]
The neutrophil myeloperoxidase (MPO) and eosinophil peroxidase (EPO) activities were measured as follows. […] The reaction was stopped by adding 100 μL of H2SO4 and quantified at 450 nm wave lengths in a spectrophotometer (VERSAmax, Molecular Devices, CA). […] After 30 minutes of incubation at room temperature, the reaction was stopped by adding 50 μL of H2SO4 1M and quantified at 492 nm in spectrophotometer.

[9] = system: Th17 glucocorticoid-insensitive asthma mouse model; experiment: Assessment of pulmonary mechanics, Example 2d; settings: DF2755A 10 mg/kg oral twice a day, dexamethasone 5 mg/kg; 24 h after the last challenge; FIG. 8
Procedure: as §2, with “The investigation was conducted on the same mouse model as described in Example 1. In” for “In”
as §5
as §4, with “Mice” for “Mice form different experimental groups”

[10] = system: Th17 glucocorticoid-insensitive asthma mouse model; experiment: Lung histology (H&E), Example 2e; settings: DF2755A 10 mg/kg oral twice a day, dexamethasone 5 mg/kg, FIG. 9
Procedure: After BALF, left lung was removed and fixed in formalin 4% in PBS (pH 7.4). The tissue was dehydrated gradually in ethanol, embedded in paraffin, cut into 4 μm sections and stained with Hematoxylin and Eosin. Photomicrographs were obtained at 400× magnification and were analyzed using the software Image Pro Plus (Image-Pro Plus 4.1, Media Cybernetics, USA).

`C[C@@H](C(=O)NS(C)(=O)=O)c1ccc(OS(=O)(=O)C(F)(F)F)cc1` [ladarixin] was tested, and the “neutrophil accumulation in lung parenchyma (MPO activity)” value [1] was “able to prevent the neutrophil accumulation”, the “TNF-α level in lung parenchyma” value ([2]; FIG. 2A) was “significantly decreased” and the “IL-17A level in lung parenchyma” value ([2]; FIG. 2B) was “significantly decreased”. The “airway hyperreactivity evoked by methacholine (ΔRI)” value [3] was “able to reduce airway hyperreactivity”, the “total leukocyte influx into alveolar space (BALF)” value ([4]; ladarixin 10 mg/Kg oral once a day, dexamethasone 5 mg/Kg s.c. once a day, FIG. 1A) was “reduces total leukocyte influx” and the “macrophages infiltrated into airways (BALF)” value ([4]; ladarixin 10 mg/Kg oral, dexamethasone 5 mg/Kg s.c., FIG. 1B) was “marked reduction”. The “neutrophils infiltrated into airways (BALF)” value ([4]; ladarixin 10 mg/Kg oral, dexamethasone 5 mg/Kg s.c., FIG. 1C) was “marked reduction”, the “eosinophil recruitment into the airways (BALF)” value ([4]; ladarixin 10 mg/Kg oral, dexamethasone 5 mg/Kg s.c., FIG. 1D) was “increased” and the “pulmonary inflammation score (lung histology)” value [5] was “effective in reducing inflammation”.
For `C[C@H](C(=O)O)c1ccc(Nc2nc(C(F)(F)F)cs2)cc1` [DF2755A, (2S)-2-(4-{[4-(trifluoromethyl)-1,3-thiazol-2-yl]amino}phenyl) propanoic acid], the “neutrophil influx into the airways (BALF)” value ([6]; day 28-31, FIG. 6B) was “able to reduce”, the “eosinophil influx into the airways (BALF)” value ([6]; FIG. 6C) was “able to reduce” and the “lymphocytes influx into the airways (BALF)” value ([6]; FIG. 6E) was “able to reduce”. For the same molecule, the “CXCL1 level in the lungs” value ([7]; FIG. 7A) was “significantly reduced”, the “CCL2 level in the lungs” value ([7]; FIG. 7B) was “significantly reduced” and the “CCL24 level in the lungs” value ([7]; FIG. 7C) was “significantly reduced”. The “IFN-γ level in the lungs” value ([7]; FIG. 7D) was “not significant”, the “IL-17 level in the lungs” value ([7]; FIG. 7E) was “significantly reduced” and the “TNF-α level in the lungs” value ([7]; FIG. 7F) was “significantly reduced”. For the same molecule, the “accumulation of neutrophils in the lungs (MPO activity)” value ([8]; FIG. 6F) was “prevented the infiltration”, the “infiltration of eosinophils in the lungs (EPO activity)” value ([8]; FIG. 6G) was “prevented the infiltration” and the “pulmonary function / pulmonary mechanics (pulmonary volumes and resistance)” value [9] was “did not significantly increased pulmonary function”. For the same molecule, the “lung inflammation, accumulation of leukocytes in the lung tissue (histology, inflammatory score)” value [10] was “effective in reducing accumulation of leukocytes”.
